Measurements as given in ChEMBL document CHEMBL5532651, “HDAC specificity and kinase off-targeting by purine-benzohydroxamate anti-hematological tumor agents” (Eur J Med Chem, 2024).
Activity calls are given as the source filed them. The rule behind the calls is not given here.

Columns and labels:
MCF7 = test: cells; type: functional, cell-based; details: Homo sapiens
[1] = Selectivity index, ratio of IC50 for human HS5 cells to IC50 for human NAMALVA cells; type: functional
[2] = Selectivity index, ratio of IC50 for human leukocytes cells to IC50 for human NAMALVA cells; type: functional
U-937 [3] = test: Cytotoxicity against human U-937 cells assessed as cell growth inhibition at 1.6 to 3.6 uM by MTT assay; type: functional, cell-based; details: dose 1.6-3.6 µM, time lower 24.0 hrs, time upper […], TDE = time-dependent effect
U-937 [4] = test: Cytotoxicity against human U-937 cells assessed as cell growth inhibition incubated for 24 to 72 hrs by MTT assay; type: functional, cell-based; details: time lower 24.0 hrs, time upper […]
U-937 [5] = test: Inhibition of cell proliferation of human U-937 cells assessed as reduction in Ki-67 expression at IC50 measured after 48 hrs by flow cytometry; type: functional, cell-based
U-937 [6] = test: Induction of apoptosis in human U-937 cells at IC50 measured after 48 hrs by flow cytometry; type: functional, cell-based
Histone deacetylase 1 [7] = biological target: T1, Histone deacetylase 1 (Homo sapiens, UniProt Q13547); test: Inhibition of HDAC1 in human Jurkat cells assessed as increase in acetyl-histone H3 level at IC50 incubated for 48 hrs by Western blot analysis; type: cell-based
T1 sequence (Q13547 whole entry): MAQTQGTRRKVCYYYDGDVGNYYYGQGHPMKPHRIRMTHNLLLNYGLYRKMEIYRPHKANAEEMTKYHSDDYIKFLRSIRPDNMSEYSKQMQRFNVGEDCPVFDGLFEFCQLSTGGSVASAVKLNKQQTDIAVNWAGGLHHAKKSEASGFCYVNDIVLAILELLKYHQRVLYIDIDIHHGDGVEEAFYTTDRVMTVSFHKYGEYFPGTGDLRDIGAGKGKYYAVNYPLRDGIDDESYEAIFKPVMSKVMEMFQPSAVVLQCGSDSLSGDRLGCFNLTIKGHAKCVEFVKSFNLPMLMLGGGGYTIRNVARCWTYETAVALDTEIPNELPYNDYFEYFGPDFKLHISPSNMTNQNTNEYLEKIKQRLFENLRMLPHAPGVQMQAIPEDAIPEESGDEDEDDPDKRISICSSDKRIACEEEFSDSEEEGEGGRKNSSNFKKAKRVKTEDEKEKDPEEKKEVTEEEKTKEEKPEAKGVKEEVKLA

Histone deacetylase 1 [8] = biological target: T1, Histone deacetylase 1; test: Inhibition of HDAC1 in human NAMALVA cells assessed as increase in acetyl-histone H3 level at IC50 incubated for 48 hrs by Western blot analysis; type: cell-based
[9] = biological target: T2, Protein deacetylase HDAC6 (Homo sapiens) (UniProt Q9UBN7); test: Inhibition of HDAC6 in human U-937 cells assessed as increase in acetyl-histone H3 level at IC50 incubated for 48 hrs by Western blot analysis; type: cell-based
T2 sequence (whole entry): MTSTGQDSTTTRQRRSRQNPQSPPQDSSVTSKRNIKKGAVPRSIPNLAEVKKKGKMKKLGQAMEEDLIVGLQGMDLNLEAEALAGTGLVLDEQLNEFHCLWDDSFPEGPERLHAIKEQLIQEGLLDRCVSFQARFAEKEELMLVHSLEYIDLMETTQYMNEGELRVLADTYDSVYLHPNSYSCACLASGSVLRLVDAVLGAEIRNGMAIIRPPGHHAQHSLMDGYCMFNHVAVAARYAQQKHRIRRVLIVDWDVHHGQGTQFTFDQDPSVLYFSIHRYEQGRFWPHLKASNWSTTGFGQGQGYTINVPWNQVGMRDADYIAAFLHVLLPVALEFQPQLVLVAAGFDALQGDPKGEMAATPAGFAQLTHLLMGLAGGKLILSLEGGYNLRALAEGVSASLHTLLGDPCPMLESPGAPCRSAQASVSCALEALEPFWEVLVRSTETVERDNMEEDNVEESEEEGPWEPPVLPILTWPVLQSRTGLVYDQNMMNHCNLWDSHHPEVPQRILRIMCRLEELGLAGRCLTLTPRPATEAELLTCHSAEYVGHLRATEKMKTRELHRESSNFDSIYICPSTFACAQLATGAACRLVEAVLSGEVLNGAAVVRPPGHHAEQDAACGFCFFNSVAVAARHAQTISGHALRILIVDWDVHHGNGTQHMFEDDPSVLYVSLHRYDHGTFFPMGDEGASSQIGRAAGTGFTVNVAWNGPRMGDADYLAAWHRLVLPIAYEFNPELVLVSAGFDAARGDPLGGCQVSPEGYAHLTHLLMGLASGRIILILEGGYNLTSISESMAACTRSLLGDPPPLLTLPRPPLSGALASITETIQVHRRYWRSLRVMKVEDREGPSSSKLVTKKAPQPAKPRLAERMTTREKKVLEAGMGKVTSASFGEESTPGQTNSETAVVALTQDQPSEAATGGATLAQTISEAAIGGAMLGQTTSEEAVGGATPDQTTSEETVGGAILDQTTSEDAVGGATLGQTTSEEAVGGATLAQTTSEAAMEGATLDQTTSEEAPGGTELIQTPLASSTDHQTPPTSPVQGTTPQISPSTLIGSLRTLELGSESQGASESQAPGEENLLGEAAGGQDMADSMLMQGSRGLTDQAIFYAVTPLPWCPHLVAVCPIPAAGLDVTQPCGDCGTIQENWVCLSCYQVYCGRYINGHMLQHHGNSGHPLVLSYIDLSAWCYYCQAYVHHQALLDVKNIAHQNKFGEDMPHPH

[10] = biological target: Cyclin-dependent kinase 6 (Homo sapiens) (UniProt Q00534); test: Inhibition of CDK6 (unknown origin) at 100 uM preincubated for 20 mins followed by 33P-ATP addition measured after 2 hrs by HotSpot kinase assay relative to control; details: time 140.0 min
Sequence of Cyclin-dependent kinase 6 (Homo sapiens) (Q00534 whole entry): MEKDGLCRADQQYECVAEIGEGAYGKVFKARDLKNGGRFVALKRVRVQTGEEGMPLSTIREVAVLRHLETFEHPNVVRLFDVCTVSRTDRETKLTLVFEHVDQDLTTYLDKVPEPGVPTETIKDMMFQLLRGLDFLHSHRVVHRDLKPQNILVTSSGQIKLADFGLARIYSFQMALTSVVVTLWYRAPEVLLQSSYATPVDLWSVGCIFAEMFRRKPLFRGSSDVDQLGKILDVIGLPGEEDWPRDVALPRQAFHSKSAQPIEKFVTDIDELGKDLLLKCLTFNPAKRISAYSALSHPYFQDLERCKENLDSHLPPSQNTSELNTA

[11] = biological target: High affinity nerve growth factor receptor (Homo sapiens) (UniProt P04629); test: Inhibition of TRKa (unknown origin) at 100 uM preincubated for 20 mins followed by 33P-ATP addition measured after 2 hrs by HotSpot kinase assay relative to control; details: time 140.0 min
Sequence of High affinity nerve growth factor receptor (Homo sapiens) (P04629 33-796 limits assumed): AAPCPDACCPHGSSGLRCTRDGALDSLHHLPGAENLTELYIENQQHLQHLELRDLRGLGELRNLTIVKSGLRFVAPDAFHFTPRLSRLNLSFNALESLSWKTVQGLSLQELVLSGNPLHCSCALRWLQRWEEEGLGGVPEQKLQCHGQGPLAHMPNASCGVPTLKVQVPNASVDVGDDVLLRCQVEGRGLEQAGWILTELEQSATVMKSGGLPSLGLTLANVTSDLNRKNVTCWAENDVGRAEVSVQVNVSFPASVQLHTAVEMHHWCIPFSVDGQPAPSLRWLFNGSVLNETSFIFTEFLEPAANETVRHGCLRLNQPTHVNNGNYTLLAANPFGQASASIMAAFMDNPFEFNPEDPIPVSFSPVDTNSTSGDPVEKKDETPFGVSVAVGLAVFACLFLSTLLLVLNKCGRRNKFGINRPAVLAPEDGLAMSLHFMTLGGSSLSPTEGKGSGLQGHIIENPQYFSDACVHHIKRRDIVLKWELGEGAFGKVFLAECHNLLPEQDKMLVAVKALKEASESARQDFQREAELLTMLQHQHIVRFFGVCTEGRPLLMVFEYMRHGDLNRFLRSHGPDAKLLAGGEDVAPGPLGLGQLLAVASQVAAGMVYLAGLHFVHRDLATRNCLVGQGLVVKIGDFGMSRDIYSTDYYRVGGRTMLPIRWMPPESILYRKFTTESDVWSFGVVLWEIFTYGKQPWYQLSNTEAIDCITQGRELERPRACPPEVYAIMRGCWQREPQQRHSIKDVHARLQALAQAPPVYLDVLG

CYP1A2 = biological target: T3, CYP1A2 (Homo sapiens, UniProt P05177); test: Inhibition of CYP1A2 in liver microsomes (unknown origin) at 10 uM incubated for 10 mins relative to control; type: ADME, Microsome
T3 sequence (P05177 whole entry): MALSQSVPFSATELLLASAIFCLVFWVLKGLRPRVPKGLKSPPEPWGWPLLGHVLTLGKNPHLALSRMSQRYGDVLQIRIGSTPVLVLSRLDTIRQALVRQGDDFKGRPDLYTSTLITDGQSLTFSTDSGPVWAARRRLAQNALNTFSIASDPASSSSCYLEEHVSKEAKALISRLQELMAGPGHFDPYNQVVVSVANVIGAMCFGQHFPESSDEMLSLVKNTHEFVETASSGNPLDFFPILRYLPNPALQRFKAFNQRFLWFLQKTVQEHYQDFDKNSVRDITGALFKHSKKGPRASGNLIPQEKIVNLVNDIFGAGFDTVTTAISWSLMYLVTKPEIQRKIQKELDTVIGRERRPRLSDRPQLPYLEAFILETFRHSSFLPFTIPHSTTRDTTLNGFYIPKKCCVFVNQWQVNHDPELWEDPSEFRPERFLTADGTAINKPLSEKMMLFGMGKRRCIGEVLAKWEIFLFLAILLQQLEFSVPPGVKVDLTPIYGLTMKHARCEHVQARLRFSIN

CYP2C9 = CYP2C9 (Homo sapiens, UniProt P11712); test: Inhibition of CYP2C9 in liver microsomes (unknown origin) at 10 uM incubated for 10 mins relative to control; type: ADME, Microsome
Sequence of CYP2C9 (P11712 whole entry): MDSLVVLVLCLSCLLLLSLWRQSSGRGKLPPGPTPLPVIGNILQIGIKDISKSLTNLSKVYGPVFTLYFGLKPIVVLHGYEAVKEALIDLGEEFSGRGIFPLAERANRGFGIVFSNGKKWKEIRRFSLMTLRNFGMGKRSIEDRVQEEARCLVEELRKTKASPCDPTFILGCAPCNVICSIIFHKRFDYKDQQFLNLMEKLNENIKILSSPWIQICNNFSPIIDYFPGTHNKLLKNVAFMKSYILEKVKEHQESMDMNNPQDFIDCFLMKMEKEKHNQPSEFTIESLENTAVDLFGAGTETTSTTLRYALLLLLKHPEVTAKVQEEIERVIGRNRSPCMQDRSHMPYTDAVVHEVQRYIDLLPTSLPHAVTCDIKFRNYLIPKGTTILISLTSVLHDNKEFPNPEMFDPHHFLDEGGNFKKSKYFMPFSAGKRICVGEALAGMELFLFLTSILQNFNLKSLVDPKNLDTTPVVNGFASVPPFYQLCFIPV

[12] = Stability in human liver microsome assessed as half life at 1 uM measured for 60 mins by LC-MS/MS analysis; type: ADME; details: liver microsomes
[13] = Stability in mouse liver microsome assessed as intrinsic clearance at 1 uM measured for 60 mins by LC-MS/MS analysis; type: ADME; details: liver microsomes, read-out: CLH
HCT-116 = test: cells; details: Homo sapiens
Jurkat = test: cells; details: Homo sapiens
U-937 [14] = test: Cytotoxicity against human U-937 cells assessed as cell growth inhibition at 0.7 to 2.5 uM by MTT assay; type: functional, cell-based; details: dose 0.7-2.5 µM, time lower 24.0 hrs, time upper […], TDE = time-dependent effect

Row | IC50 (MCF7) | inhibition (Histone deacetylase 1 [7]) | inhibition (Histone deacetylase 1 [8]) | inhibition [9] | inhibition [10] | inhibition [11] | inhibition at 10 min, 10 µM (CYP1A2) | inhibition at 10 min, 10 µM (CYP2C9) | half-life at 1 µM [12] | microsomal CLint at 1 µM [13] | IC50 (HCT-116) | IC50 (Jurkat) | SMILES | Ratio IC50 [1] | Ratio IC50 [2] | inhibition (U-937 [3]) | inhibition (U-937 [4]) | inhibition (U-937 [5]) | Activity (U-937 [6]) | inhibition (U-937 [14])
1 | 9.3 µM | Active | Active | Active | 38.6% | 99.9% | 46% | 52% | > 2 h | 20 µL/min/mg | 9.3 µM | 0.02 µM | O=C(NO)c1ccc(Cn2cnc3c(Nc4ccc(F)c(Cl)c4)ncnc32)cc1 | >=100 | >=100 | Tde | Dose-Dependent Effect | Active | Active | 
2 | 19.5 µM | Active | Active | Active |  |  | 50% | 34% | > 2 h | 14 µL/min/mg | 8.3 µM | 0.05 µM | COc1ccc(Nc2ncnc3c2ncn3Cc2ccc(C(=O)NO)cc2)cc1 | >=100 | >=100 |  | Dose-Dependent Effect | Active | Active | Tde
